Tested on: PRPP levels of isolated splenocytes
Test: PRPP levels of isolated splenocytes incubated in vitro with UDPG or G-6-P
Assay type: cell-based, mouse
Conditions: for PRPP levels: soluble fraction of homogenates
Method: Isolation of splenocytes and hepatic cells: The organs were gently teased apart with forceps over a fine tea strainer into PBS or minimum essential culture medium (MEM) containing 0.1M potassium phosphate buffer pH 7.4 with and without added effectors. […] The supernatant solutions were assayed for PRPP.
The vials were shaken vigorously and their radioactivity determined.

Compound: O=P(O)(O)OC[C@H]1OC(O)[C@H](O)[C@@H](O)[C@@H]1O (some centres unmarked) [G-6-P, Glucose-6-phosphate]
- PRPP levels (1.1 mM in MEM): 969 pmoles/mg protein
- PRPP levels (5.5 mM in MEM): 1418 pmoles/mg protein
- PRPP levels (11 mM in MEM): 1510 pmoles/mg protein
- PRPP levels (22 mM in MEM): 1998 pmoles/mg protein
- effect on intracellular PRPP level of splenocytes as a function of concentration (isolated splenocytes, in words): not evident below a concentration of 5.5 mM

— patent US5627161A (Memorial Hospital for Cancer and Allied Diseases, priority 1993, dated 1997)
